This is an account of results in PMC11173647, “Anti-Inflammatory Activity of Pyrazolo[1,5-a]quinazolines” (Molecules, 2024).

Where two headings read alike, the source gives them in different places.

Data set [1] has as its system LPS-induced NF-κB/AP-1 transcriptional activity in THP-1Blue cells. As to the kind of experiment: LPS-induced NF-κB/AP-1 reporter (secreted alkaline phosphatase) activity in THP-1Blue cells. In kind it is cell-based, human. Particulars: THP-1Blue cells, 30 min pretreatment, 250 ng/mL LPS for 24 h, alkaline phosphatase in supernatant, read-out: AP Production IC50. The procedure: THP-1 cells are a human monocyte cell line that was developed from a monocyte isolated from the peripheral blood of an acute monocytic leukemia patient. This cell line is used as a monocyte/macrophage model in immunology research. The THP-1Blue cells obtained from InvivoGen (San Diego, CA, USA) are THP-1 cells that were stably transfected with a secreted embryonic alkaline phosphatase gene that is under control of a NF-κB/AP-1-inducible promoter. For this study, THP-1Blue cells were cultured at 37 °C in a humidified atmosphere containing 5% CO2 in RPMI 1640 medium (Mediatech Inc., Herndon, VA, USA) supplemented with 10% (v/v) fetal bovine serum (FBS), 100 μg/mL streptomycin, 100 U/mL penicillin, 100 μg/mL phleomycin (Zeocin), and 10 μg/mL blasticidin S (all from Sigma-Aldrich, St. Louis, MO, USA).
To measure the activation of AP-1/NF-κB, the THP-1Blue cells (2 × 10^5 cells/well) were pretreated with the test compounds or dimethyl sulfoxide (DMSO; 1% final concentration) for 30 min, followed by the addition of 250 ng/mL of lipopolysaccharide (LPS; from Escherichia coli strain 0111:B4) for 24 h, and alkaline phosphatase activity was measured in the cell supernatants using the QUANTI-Blue mix (InvivoGen) as the absorbance at 655 nm and compared with positive control samples (LPS). The concentration of the compound that caused 50% inhibition of the NF-κB reporter activity (IC50) was calculated.

For data set [2], the system named is THP-1Blue cells. Nature of the data set: Cytotoxicity, CellTiter-Glo Luminescent Cell Viability Assay. The following applies: 24 h, concentrations up to 50 µM. It counts as cell-based, human. The procedure: Cytotoxicity was analyzed with a CellTiter-Glo Luminescent Cell Viability Assay Kit from Promega (Madison, WI, USA) according to the manufacturer’s protocol. THP-1Blue cells were treated with varying concentrations of the test compounds (up to 50 µM) and cultivated for 24 h. After treatment, the cells were allowed to equilibrate to room temperature for 30 min, the substrate was added, and the samples were analyzed with a Fluoroscan Ascent FL (Thermo Fisher Scientific, Waltham, MA, USA).

A short description of data set [3]: Solubility in DMSO. In kind it is physicochemical.
Data set [4] has as its target T1, JNK1 (Homo sapiens, UniProt P45983).
T1 construct: purchased Eurofins Pharma Discovery (KINOMEscan)
Nature of the data set: KINOMEscan ATP site-dependent binding assay. The following applies: duplicate. The procedure:
(§1) Binding reactions were performed at room temperature for 1 h, and the fraction of kinase not bound to the test compound was determined by capture with an immobilized affinity ligand and quantified by quantitative polymerase chain reaction. The primary screening at fixed concentrations of the compound was performed in duplicate.

The target of data set [5] is T2, JNK2 (Homo sapiens, UniProt P45984).
T2 construct: purchased Eurofins Pharma Discovery (KINOMEscan)
T2 sequence (P45984 whole entry): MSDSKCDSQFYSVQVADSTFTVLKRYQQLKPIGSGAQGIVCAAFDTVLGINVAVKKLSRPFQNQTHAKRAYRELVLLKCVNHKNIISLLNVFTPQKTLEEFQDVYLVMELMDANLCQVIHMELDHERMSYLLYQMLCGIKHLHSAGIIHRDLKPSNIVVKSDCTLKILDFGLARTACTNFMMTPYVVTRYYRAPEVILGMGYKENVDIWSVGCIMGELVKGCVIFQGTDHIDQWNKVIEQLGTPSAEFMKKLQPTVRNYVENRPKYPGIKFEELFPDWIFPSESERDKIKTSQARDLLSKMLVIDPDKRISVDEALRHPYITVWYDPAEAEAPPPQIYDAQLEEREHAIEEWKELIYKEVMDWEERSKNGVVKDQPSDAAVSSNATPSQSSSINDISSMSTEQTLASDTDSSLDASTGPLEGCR
As to the kind of experiment: KINOMEscan ATP site-dependent binding assay. Particulars: duplicate. The procedure: as §1

For data set [6], the target named is T3, JNK3 (Homo sapiens, UniProt P53779).
T3 construct: purchased Eurofins Pharma Discovery (KINOMEscan)
T3 sequence (P53779 whole entry): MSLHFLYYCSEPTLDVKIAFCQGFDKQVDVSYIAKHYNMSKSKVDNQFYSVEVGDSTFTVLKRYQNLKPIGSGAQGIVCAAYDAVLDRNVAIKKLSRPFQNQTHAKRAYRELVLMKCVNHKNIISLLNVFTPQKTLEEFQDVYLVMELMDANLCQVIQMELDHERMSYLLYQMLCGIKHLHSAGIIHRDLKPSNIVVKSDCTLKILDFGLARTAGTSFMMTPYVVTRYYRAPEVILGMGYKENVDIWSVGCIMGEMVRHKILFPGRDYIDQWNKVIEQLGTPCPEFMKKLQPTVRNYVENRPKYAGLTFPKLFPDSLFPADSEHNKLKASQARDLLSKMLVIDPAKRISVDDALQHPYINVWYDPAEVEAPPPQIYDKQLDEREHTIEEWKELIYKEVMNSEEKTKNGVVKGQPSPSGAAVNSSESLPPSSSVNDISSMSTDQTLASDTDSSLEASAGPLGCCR
Nature of the data set: KINOMEscan ATP site-dependent binding assay. The following applies: duplicate. The procedure: as §1

For data set [7], the system named is cyclooxygenase 2 (COX-2). Set-up: method as in PMID 32696514. The following applies: cited from earlier work.
Data set [8] concerns the target 5-lipoxygenase (5-LOX). Set-up: method as in PMID 32696514. Particulars: cited from earlier work.
Data set [9] has as its system carrageenan-induced paw edema. Set-up: method as in PMID 32696514. The following applies: carrageenan-induced paw edema model, 10 mg/kg; cited from earlier work. On the technique in general: In the carrageenan paw model, swelling and tenderness develop within hours.
The subject of data set [10] is gastric ulcerogenic effects. Set-up: method as in PMID 32696514. The following applies: in vivo; cited from earlier work.

T1 sequence (P45983 whole entry): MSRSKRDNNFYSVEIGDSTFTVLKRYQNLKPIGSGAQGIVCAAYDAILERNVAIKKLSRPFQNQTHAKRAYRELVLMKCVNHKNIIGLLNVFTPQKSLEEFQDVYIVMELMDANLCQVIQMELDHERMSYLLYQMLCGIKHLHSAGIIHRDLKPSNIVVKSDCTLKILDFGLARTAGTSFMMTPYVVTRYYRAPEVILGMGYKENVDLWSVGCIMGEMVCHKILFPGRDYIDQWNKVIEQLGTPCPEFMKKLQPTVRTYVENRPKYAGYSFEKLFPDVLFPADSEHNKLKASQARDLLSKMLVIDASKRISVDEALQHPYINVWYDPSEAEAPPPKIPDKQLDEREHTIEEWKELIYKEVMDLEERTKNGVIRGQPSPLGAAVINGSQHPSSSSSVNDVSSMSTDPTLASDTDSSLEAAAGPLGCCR

In turn, `NC(=O)c1cnn2c1nc(OCc1ccccc1)c1ccccc12` [13b, 5-(Benzyloxy)pyrazolo[1,5-a]quinazoline-3-carboxamide] returned a melting point of 208 to 209 °C. The IC50 in data set [1] (Homo sapiens) turned out to be 4.81 µM. Also, in data set [1], the IC50 was found to be 4.8 ± 1.2 µM. For the same molecule, the Cytotoxicity result in data set [2] is recorded as “N.T. (no cytotoxicity was found in THP-1Blue cells at concentrations up to 50 µM)”. The “solubility in DMSO” value in data set [3] is given as “low solubility in DMSO”.

For the molecule `NC(=O)c1cnn2c1nc(OCc1ccc(S(N)(=O)=O)cc1)c1ccccc12` [13i, 5-[(4-Sulfamoylbenzyl)oxy]pyrazolo[1,5-a]quinazoline-3-carboxamide], the melting point was in the range of 167 to 168 °C. In data set [1] (Homo sapiens), the IC50 is 9.7 ± 2.4 µM. In addition, the Cytotoxicity result in data set [2] was “N.T. (no cytotoxicity was found in THP-1Blue cells at concentrations up to 50 µM)”. The equilibrium dissociation constant (Kd) in data set [4] was determined as 10.9 ± 1.4 µM. In addition, the Kd in data set [5] turned out to be 18.5 ± 2.3 µM. For the same molecule, the Kd in data set [6] stood at 9 ± 1.2 µM.

`COc1cc(/C=c2/c(=O)[nH]n3c(=O)c4ccccc4nc23)cc(OC)c1OC` [A]: the “selectivity toward COX-2 versus COX-1” value in data set [7] (COX-2 versus COX-1) is recorded as “about 14 fold”. For the same molecule, the IC50 is 0.047 µM in data set [7] and 2.3 µM in [8]. The reduction of edema in data set [9] is 39%. The gastric ulcerogenic effects entry in data set [10] is listed as “did not exhibit gastric ulcerogenic effects”.

Take `C[S+]([O-])c1ccc(COc2nc3c(C(N)=O)cnn3c3ccccc23)cc1` (stereo not shown) [compound 16]: the melting point lay within 225 to 226 °C. Besides, in data set [1] (Homo sapiens), the IC50 was 7.9 ± 1.7 µM. For the same molecule, the Cytotoxicity entry in [2] is listed as “N.T. (no cytotoxicity was found in THP-1Blue cells at concentrations up to 50 µM)”. Moreover, the dissociation constant (Kd) in data set [4] was 17 ± 2.1 µM. In addition, the Kd in data set [5] is 21 ± 2.4 µM. Besides, the Kd in data set [6] worked out at 10.4 ± 1.5 µM.

The term IC50 denotes the concentration needed to halve the response being measured. What is called melting point is the temperature of the solid-liquid transition. What is called Kd is the equilibrium constant for the complex coming apart.
